pIC50: −log10 of the molar value. Calls of active or inactive are those of the source. No cut-off for these calls is given here.
Columns and labels:
[1] = Cytotoxicity against human Caco2 cells assessed as cell growth inhibition at 0.3 uM by SRB assay; assay type: functional; settings: Caco-2, read-out: GI
[2] = Cytotoxicity against human L02 cells assessed as cell growth inhibition after 48 hrs by MTT assay; assay type: toxicity, cell-based
[3] = Cytotoxicity against human L02 cells assessed as cell growth inhibition at 100 uM after 48 hrs by MTT assay; assay type: toxicity, cell-based; settings: read-out: GI
HeLa [4] = assay: Selectivity index, ratio of IC50 for human L02 cells to IC50 for human HeLa cells; assay type: functional
[5] = Cell cycle arrest in human HeLa cells assessed as accumulation at S phase at 0.1 to 1 uM after 24 hrs by propidium iodide-based FACS analysis (reference value: 31.26%); assay type: functional
[6] = Cell cycle arrest in human HeLa cells assessed as accumulation at G2/M phase at 0.1 to 1 uM after 24 hrs by propidium iodide-based FACS analysis (reference value: 7.12%); assay type: functional
[7] = (§1) Cytotoxicity against human Bel7402 cells assessed as cell growth inhibition at 100 uM after 48 hrs by MTT assay; assay type: functional; settings: Bel-7402, 48 h, read-out: GI
[8] = Cell cycle arrest in human HeLa cells assessed as accumulation at G0/G1 phase at 0.1 to 1 uM after 24 hrs by propidium iodide-based FACS analysis (reference value: 61.71%); assay type: functional
[9] = Cytotoxicity against human HeLa cells assessed as cell growth inhibition after 48 hrs by MTT assay; assay type: functional, cell-based
[10] = Cytotoxicity against human Bel7402 cells assessed as cell growth inhibition after 48 hrs by MTT assay; assay type: functional, cell-based; settings: Bel-7402, 48 h
[11] = Cytotoxicity against human HCT116 cells assessed as cell growth inhibition after 48 hrs by MTT assay; assay type: functional, cell-based; settings: HCT-116, 48 h
HCT-116 [12] = assay: Selectivity index, ratio of IC50 for human L02 cells to IC50 for human HCT116 cells; assay type: functional
Bel-7402 [13] = assay: Selectivity index, ratio of IC50 for human L02 cells to IC50 for human Bel7402 cells; assay type: functional
[14] = Cell cycle arrest in human HeLa cells assessed as accumulation at S phase at 50 uM after 24 hrs by propidium iodide-based FACS analysis (reference value: 31.26%); assay type: functional
HCT-116 [15] = assay: (§2) Cytotoxicity against human HCT116 cells assessed as cell growth inhibition at 100 uM after 48 hrs by MTT assay; assay type: functional
[16] = Cell cycle arrest in human HeLa cells assessed as accumulation at G2/M phase at 50 uM after 24 hrs by propidium iodide-based FACS analysis (reference value: 7.12%); assay type: functional
Bel-7402 [17] = assay: as §1; assay type: functional
[18] = Cell cycle arrest in human HeLa cells assessed as accumulation at G0/G1 phase at 50 uM after 24 hrs by propidium iodide-based FACS analysis (reference value: 61.71%); assay type: functional
HeLa [19] = assay: Antimigratory activity in human HeLa cells at 1 uM after 24 hrs by wound-scratch assay; assay type: functional, cell-based
HeLa [20] = assay: Induction of apoptosis in human HeLa cells assessed as increase in early apoptotic cells at 0.1 uM after 24 hrs by Annexin V-FITC/propidium iodide based FACS analysis; assay type: functional, cell-based
[21] = as §2; assay type: functional; settings: HCT-116, 48 h, read-out: GI
[22] = Cytotoxicity against human HeLa cells assessed as cell growth inhibition at 100 uM after 48 hrs by MTT assay; assay type: functional; settings: read-out: GI

| Compound | IC50 at 48 h [2] | inhibition at 48 h, 100 µM [3] | Ratio IC50 (HeLa [4]) | Activity [5] | Activity [6] | inhibition of growth at 100 µM [7] | Activity [8] | pIC50 [9] | pIC50 [10] | pIC50 [11] | Ratio IC50 (HCT-116 [12]) | inhibition of growth at 100 µM [21] | inhibition of growth at 100 µM [22] | also measured |
| --- | --- | --- | --- | --- | --- | --- | --- | --- | --- | --- | --- | --- | --- | --- |
| COc1ccc(/C=C\c2cc(OC)cc(OC)c2)cc1 [8Z-3,4',5-TRIMETHOXYSTILBENE] |  |  |  |  |  |  |  |  |  |  |  |  |  | inhibition of growth at 0.3 µM [1]: 80% |
| COc1cc(OC)cc(/C(C#N)=C/c2ccc(Br)cc2)c1 | > 100 µM | 36% | >23.81 | 30.1% | 69.9% | 31.6% | 0.7% | 5.38 | < 4.00 | 4.94 | >8.79 |  |  |  |
| CCOc1ccc(/C=C(\C#N)c2cc(OC)cc(OC)c2)cc1 | > 100 µM | 34.7% | >12.87 | 47.6% | 51.6% |  | 0.74% | 5.11 | 6.18 | 6.89 | >769.23 |  |  | Ratio IC50 (Bel-7402 [13]): >151.52 |
| Oc1ccc(/C=C/c2cc(O)cc(O)c2)cc1 [RESVERATROL] |  |  |  |  |  |  |  | 3.92 | 3.86 | 4.20 |  |  |  | Activity [14]: 21.8%; growth inhibition (GI) (HCT-116 [15]): Active; Activity [16]: 6.29%; growth inhibition (GI) (Bel-7402 [17]): Active; Activity [18]: 72% |
| CC(=O)O[C@H]1C(=O)[C@@]2(C)[C@H]([C@H](OC(=O)c3ccccc3)[C@]3(O)C[C@H](OC(=O)[C@H](O)[C@@H](NC(=O)c4ccccc4)c4ccccc4)C(C)=C1C3(C)C)[C@]1(OC(C)=O)CO[C@@H]1C[C@@H]2O [PACLITAXEL] | > 100 µM |  | >7.72 | 28.5% | 70.6% |  | 1.03% | 4.89 | > 7.00 | > 7.00 | >1000 |  |  | Activity (HeLa [19]): Active; Ratio IC50 (Bel-7402 [13]): >1000; Activity (HeLa [20]): Active |
| COc1cc(OC)cc(/C(C#N)=C/c2cccc(C(F)(F)F)c2)c1 | > 100 µM | 29.4% |  |  |  | 20% |  | < 4.00 | < 4.00 | < 4.00 |  | 28.7% | 18.3% |  |
| COc1cccc(/C=C(\C#N)c2cc(OC)cc(OC)c2)c1 | > 100 µM | 19.5% |  |  |  | 12.4% |  | < 4.00 | < 4.00 | < 4.00 |  | 41.1% | 36.4% |  |
| COc1cc(OC)cc(/C(C#N)=C/c2ccccc2C(F)(F)F)c1 | > 100 µM | 33.6% |  |  |  | 11.4% |  | < 4.00 | < 4.00 | < 4.00 |  | 26.6% | 4.9% |  |

— ChEMBL document CHEMBL3872241, “Synthesis and bioactivity evaluation of 2,3-diaryl acrylonitrile derivatives as potential anticancer agents” (Bioorg Med Chem Lett, 2017)
